# Tested on: Mycobacterium tuberculosis H37Rv strains
# Assay: In vitro assay for antimicrobial susceptibility (microplate Alamar blue MIC)
# Type: cell-based
# Conditions: Mycobacterium tuberculosis, H37RV, 7H9, Alamar blue, inhibition ≧90%; read-out: MIC (μg/mL) against H37Rv
row,SMILES,MIC [µg/mL]
1,"CC(C)/N=c1\cc2n(-c3ccc(F)c(F)c3)c3ccccc3nc-2cc1Nc1ccccn1 [TBI-1436, 5-(3,4-Difluorophenyl)-3-(1-methylethyl)imino-2-(2-pyridyl)amino-3,5-dihydrophenazine]",0.028
2,"Fc1ccc(-n2c3c/c(=N\C4CCOCC4)c(Nc4ncccn4)cc-3nc3ccccc32)cc1 [TBI-1084, 5-(4-Fluorophenyl)-3-(4-tetrahydropyranyl)imino-2-(pyrimidin-2-yl)amino-3,5-dihydrophenazine]",0.043
3,"COC1CCC(/N=c2\cc3n(-c4ccc(F)cc4)c4ccccc4nc-3cc2Nc2ccccn2)CC1 (stereo not shown) [TBI-1078, 5-(4-Fluorophenyl)-3-(4-methoxycyclohexyl)imino-2-(2-pyridyl)amino-3,5-dihydrophenazine]",0.028
4,"CC(C)/N=c1\cc2n(-c3ccc(F)cc3)c3ccccc3nc-2cc1Nc1ccccn1 [TBI-1054, 5-(4-Fluorophenyl)-3-(1-methylethyl)imino-2-(2-pyridyl)amino-3,5-dihydrophenazine]",0.446

# Same assay, conditions: Mycobacterium tuberculosis, H37RV, in vitro, Mycobacterium tuberculosis H37Rv strains; read-out: MIC (μg/mL) against H37Rv
row,SMILES,MIC [µg/mL]
1,"Cc1ccc(-n2c3c/c(=N\C4CCC4)c(Nc4ccc(C)nc4)cc-3nc3ccccc32)cc1 [TBI-346, 5-(4-Methylphenyl)-3-cyclobutylimino-2-(6-methyl-3-pyridyl)amino-3,5-dihydrophenazine]",0.058
2,"COc1ncccc1Nc1cc2nc3cc(C#N)ccc3n(-c3ccc(F)cc3)c-2c/c1=N\C(C)C [TBI-1064, 8-Cyano-5-(4-fluorophenyl)-3-(1-methylethyl)imino-2-(2-methoxy-3-pyridyl)amino-3,5-dihydrophenazine]",0.24
3,"Cc1ncccc1Nc1cc2nc3ccccc3n(-c3ccc(F)cc3)c-2c/c1=N\C1CCOCC1 [TBI-1012, 5-(4-Fluorophenyl)-3-(4-tetrahydropyranyl)imino-2-(2-methyl-3-pyridyl)amino-3,5-dihydrophenazine]",0.026
4,"COc1ncccc1Nc1cc2nc3ccccc3n(-c3ccc(Cl)cc3Cl)c-2c/c1=N\C1CCC1 [TBI-893, 5-(2,4-Dichlorophenyl)-3-cyclobutylimino-2-(2-methoxy-3-pyridyl)amino-3,5-dihydrophenazine]",0.06
5,"Cc1ccc(Nc2cc3nc4ccccc4n(-c4ccc(Br)cc4)c-3c/c2=N\C(C)C)cn1 [TBI-099, 5-(4-Bromophenyl)-3-(1-methylethyl)imino-2-(6-methyl-3-pyridyl)amino-3,5-dihydrophenazine]",0.049
6,"Cc1ccc(-n2c3c/c(=N\C4CCCCC4)c(Nc4cncc(C)c4)cc-3nc3ccccc32)cc1 [TBI-329, 5-(4-Methylphenyl)-3-cyclohexylimino-2-(5-methyl-3-pyridyl)amino-3,5-dihydrophenazine]",0.092
7,"Cc1ccc(-n2c3c/c(=N\C(C)C)c(Nc4ccc(C)nc4)cc-3nc3ccccc32)cc1 [TBI-315, 5-(4-Methylphenyl)-3-(1-methylethyl)imino-2-(6-methyl-3-pyridyl)amino-3,5-dihydrophenazine]",0.057
8,"Clc1ccc(-n2c3c/c(=N\C4CCOCC4)c(Nc4cccnc4)cc-3nc3ccccc32)cc1Cl [TBI-351, 5-(3,4-Dichlorophenyl)-3-(4-tetrahydropyranyl)imino-2-(3-pyridyl)amino-3,5-dihydrophenazine]",0.079
9,Cc1ncccc1Nc1cc2nc3ccccc3n(-c3ccc(Cl)cc3)c-2c/c1=N\C1CCOCC1 [TBI-452],0.168
10,"COc1ncccc1Nc1cc2nc3ccccc3n(-c3ccccc3)c-2c/c1=N\C1CCC(O)CC1 (stereo not shown) [TBI-087, 5-Phenyl-3-(4-hydroxycyclohexyl)imino-2-(2-methoxy-3-pyridyl)amino-3,5-dihydrophenazine]",0.466
11,"COCC(COC)/N=c1\cc2n(-c3ccc(Cl)cc3)c3ccccc3nc-2cc1Nc1cccnc1OC [TBI-871, 5-(4-Chlorophenyl)-3-(1,3-dimethoxyisopropyl)imino-2-(2-methoxy-3-pyridyl)amino-3,5-dihydrophenazine]",0.03
12,COc1ncccc1Nc1cc2nc3ccccc3n(-c3ccc(C)cc3)c-2c/c1=N\C1CCCCC1 [TBI-331],0.047
13,"Cc1ccc(-n2c3c/c(=N\C4CCN(C)CC4)c(Nc4cccnc4C)cc-3nc3ccccc32)cc1 [TBI-326, 5-(4-Methylphenyl)-3-(N-methyl-4-piperidyl)imino-2-(2-methyl-3-pyridyl)amino-3,5-dihydrophenazine]",0.1
14,"FC(F)(F)Oc1ccc(-n2c3c/c(=N\C4CCN(C5CCCC5)CC4)c(Nc4cccnc4)cc-3nc3ccccc32)cc1 [TBI-163, 5-(4-Trifluoromethoxyphenyl)-3-(N-cyclopentyl-4-piperidyl)imino-2-(3-pyridyl)amino-3,5-dihydrophenazine]",0.06
15,"COC1CCC(/N=c2\cc3n(-c4ccc(Br)cc4)c4ccccc4nc-3cc2Nc2cccnc2)CC1 (stereo not shown) [TBI-091, 5-(4-Bromophenyl)-3-(4-methoxycyclohexyl)imino-2-(3-pyridyl)amino-3,5-dihydrophenazine]",0.062
16,"Fc1ccc(-n2c3c/c(=N\C4CCC4)c(Nc4cccnc4)cc-3nc3ccccc32)cc1 [TBI-923, 5-(4-Fluorophenyl)-3-cyclobutylimino-2-(3-pyridyl)amino-3,5-dihydrophenazine]",0.021
17,"Cc1ccc(Nc2cc3nc4ccccc4n(-c4ccc(Cl)cc4)c-3c/c2=N\C2CCN(C)CC2)cn1 [TBI-446, 5-(4-Chlorophenyl)-3-(N-methyl-4-piperidyl)imino-2-(6-methyl-3-pyridyl)amino-3,5-dihydrophenazine]",0.016
18,"Cc1ncccc1Nc1cc2nc3ccccc3n(-c3cccc(OC(F)(F)F)c3)c-2c/c1=N\C1CCCCC1 [TBI-1034, 5-(3-Trifluoromethoxyphenyl)-3-cyclohexylimino-2-(2-methyl-3-pyridyl)amino-3,5-dihydrophenazine]",0.059
19,"Cc1ccc(-n2c3c/c(=N\C4CC4)c(Nc4cncc(C)c4)cc-3nc3ccccc32)cc1 [TBI-342, 5-(4-Methylphenyl)-3-cyclopropylimino-2-(5-methyl-3-pyridyl)amino-3,5-dihydrophenazine]",0.022
20,"Fc1ccc(-n2c3c/c(=N\C4CCOCC4)c(Nc4cccnc4)cc-3nc3ccccc32)cc1F [TBI-1432, 5-(3,4-Difluorophenyl)-3-(4-tetrahydropyranyl)imino-2-(3-pyridyl)amino-3,5-dihydrophenazine]",0.088
21,"Cc1cncc(Nc2cc3nc4ccccc4n(-c4ccc(C(F)(F)F)cc4)c-3c/c2=N\C2CCC2)c1 [TBI-726, 5-(4-Trifluoromethylphenyl)-3-cyclobutylimino-2-(5-methyl-3-pyridyl)amino-3,5-dihydrophenazine]",0.058
22,"COc1ncccc1Nc1cc2nc3ccc(F)cc3n(-c3ccc(OC(F)(F)F)cc3)c-2c/c1=N\C1CCCCC1 [TBI-856, 7-Fluoro-5-(4-trifluoromethoxyphenyl)-3-cyclohexylimino-2-(2-methoxy-3-pyridyl)amino-3,5-dihydrophenazine]",0.029
23,"COc1ccc2nc3cc(Nc4cccnc4OC)/c(=N/C4CC4)cc-3n(-c3ccc(Cl)cc3)c2c1 [TBI-894, 7-Methoxy-5-(4-chlorophenyl)-3-cyclopropylimino-2-(2-methoxy-3-pyridyl)amino-3,5-dihydrophenazine]",0.06
24,"CC(=O)Nc1ccc(Nc2cc3nc4ccccc4n(-c4ccc(F)cc4)c-3c/c2=N\C2CCCCC2)cn1 [TBI-916, 5-(4-Fluorophenyl)-3-cyclohexylimino-2-(6-acetamino-3-pyridyl)amino-3,5-dihydrophenazine]",0.014
